According to US20220332764A1, “T CELL EPITOPES OF HCMV AND USES OF THEREOF” (EBERHARD KARLS UNIVERSITÄT TÜBINGEN, priority 2019, published 2022):
Values joined by “and” are separate entries in the source; they are usually repeats but may differ in a detail not shown here. Identical values can stand only once. Like-named read-outs stand apart in the source and are kept apart here.

Assays:
[1] = system: PBMCs of healthy HCMV-seropositive donors; experiment: IFNγ ELISpot after 12 day stimulation (memory T-cell response); assay type: cell-based, human; settings: for % Positive donors (after 12 days of stimulation): IFNγ ELISpot, HLA-matched seropositive donors; for ELISpot response rate (12 d stim.): 12-day amplification with IL-2 in vitro; for Positive donors as tested: positive / tested HLA-matched seropositive donors, positive: >10 spots/well and at least 3-fold negative control; for Binding to more than one HLA-I allotype: stimulated T cells of different donors harboring either of two well predicted alleles
From the text: (§1) PHA was used as positive control.

[2] = system: PBMCs of healthy HCMV-seropositive donors; experiment: ex vivo IFNγ ELISpot without prestimulation; assay type: cell-based, human; settings: for % Positive donors (ex vivo): IFNγ ELISpot ex vivo, donors previously tested positive; for ELISpot response rate (ex vivo): donors positively tested in ELISpots with 12d stimulation
From the text: as §1

[3] = system: CD8+ / CD4+ T cells of donor PBMCs; experiment: Intracellular cytokine staining (ICS; IFNγ, TNFα, CD107a); assay type: cell-based, human; settings: for Intracellular staining: responding T-cell subset; for Intracellular cytokine staining: responding T-cell subset after peptide stimulation
From the text: PHA was used as positive control. […] (Cytofix/Cytoperm, BD Biosciences).

[4] = system: CD8+ T cells of HLA-matched healthy donors; settings: for Tetramer-staining: after 12 day amplification

Sequence | % Positive donors (after 12 days of stimulation) [1] | Positive donors as tested [1] | % Positive donors (ex vivo) [2] | Intracellular cytokine staining [3] | Tetramer-staining [4] | also measured
ALWDVALLEV (listed as Human cytomegalovirus) [SEQ ID NO: 2] | 71.4% | 10/14 | 25.0% | CD8 | Positive | ELISpot response rate (12 d stim.) ([1]; Tested HLA A*02:01): 71.4; ELISpot response rate (ex vivo) ([2]; Tested HLA A*02:01): 25.0; Intracellular staining ([3]; Tested HLA A*02:01): CD8; Tetramer staining ([4]; Tested HLA A*02:01): positive
DARSRIHNV (listed as Human cytomegalovirus) [SEQ ID NO: 89] | 53.3% | 8/15 |  | CD8 | Positive | ELISpot response rate (12 d stim.) ([1]; Tested HLA B*51:01): 53.3; ELISpot response rate (ex vivo) ([2]; Tested HLA B*51:01): 20.0; Intracellular staining ([3]; Tested HLA B*51:01): CD8; Tetramer staining ([4]; Tested HLA B*51:01): positive
DEQVSKRSW (listed as Human cytomegalovirus) [SEQ ID NO: 42] | 45.8% | 11/24 | 12.5% | CD8 | Positive | 
FLDENFKQL (listed as Human cytomegalovirus) [SEQ ID NO: 5] | 47.6% | 10/21 | 37.5% | CD4 | Negative | 
FPVEVRSHV (listed as Human cytomegalovirus) [SEQ ID NO: 88] | 65.2% | 15/23 | 0.0% | CD8 | Positive | ELISpot response rate (12 d stim.) ([1]; Tested HLA B*51:01): 65.2; ELISpot response rate (ex vivo) ([2]; Tested HLA B*51:01): 0.0; Intracellular staining ([3]; Tested HLA B*51:01): CD8; Tetramer staining ([4]; Tested HLA B*51:01): positive
GLYTQPRWK (listed as Human cytomegalovirus) [SEQ ID NO: 67] | 76.2% | 16/21 | 50.0% | CD8 | Positive | ELISpot response rate (12 d stim.) ([1]; Tested HLA A*03:01): 76.2; ELISpot response rate (ex vivo) ([2]; Tested HLA A*03:01): 50.0; Intracellular staining ([3]; Tested HLA A*03:01): CD8; Tetramer staining ([4]; Tested HLA A*03:01): positive
GVLDAVWRV (listed as Human cytomegalovirus) [SEQ ID NO: 1] | 72.2% | 13/18 | 50.0% | CD8 | Positive | ELISpot response rate (12 d stim.) ([1]; Tested HLA A*02:01): 72.2; ELISpot response rate (ex vivo) ([2]; Tested HLA A*02:01): 50.0; Intracellular staining ([3]; Tested HLA A*02:01): CD8; Tetramer staining ([4]; Tested HLA A*02:01): positive
HETGVYQMW (listed as Human cytomegalovirus) [SEQ ID NO: 41] | 65.4% | 17/26 | 62.5% | CD8 | Positive | ELISpot response rate (12 d stim.) ([1]; Tested HLA B*44:02): 65.4; ELISpot response rate (ex vivo) ([2]; Tested HLA B*44:02): 62.5; Intracellular staining ([3]; Tested HLA B*44:02): CD8; Tetramer staining ([4]; Tested HLA B*44:02): positive
ITEIALDRY (listed as Human cytomegalovirus) [SEQ ID NO: 54] | 58.3% | 14/24 | 14.3% | CD8 | Positive | ELISpot response rate (12 d stim.) ([1]; Tested HLA A*01:01): 58.3; ELISpot response rate (ex vivo) ([2]; Tested HLA A*01:01): 14.3; Intracellular staining ([3]; Tested HLA A*01:01): CD8; Tetramer staining ([4]; Tested HLA A*01:01): positive
KLGYRPHAK (listed as Human cytomegalovirus) [SEQ ID NO: 71] | 37.9% | 11/29 |  | CD8 | Positive | 
LPHERHREL (listed as Human cytomegalovirus) [SEQ ID NO: 100] |  | 20/22 and 3/12 | 85.7% | CD8 | positive | ELISpot response rate (12 d stim.) ([1]; Tested HLA B*08:01): 90.9; Binding to more than one HLA-I allotype [1]: potentially able to bind to more than one HLA-I allotype; ELISpot response rate (ex vivo) ([2]; Tested HLA B*08:01): 85.7; Intracellular staining ([3]; Tested HLA B*08:01): CD8; Tetramer staining ([4]; Tested HLA B*08:01): positive
LPLKMLNI (listed as Human cytomegalovirus) [SEQ ID NO: 87] | 80.0% | 12/15 | 87.5% | CD8 | Positive | ELISpot response rate (12 d stim.) ([1]; Tested HLA B*51:01): 80.0; ELISpot response rate (ex vivo) ([2]; Tested HLA B*51:01): 87.5; Intracellular staining ([3]; Tested HLA B*51:01): CD8; Tetramer staining ([4]; Tested HLA B*51:01): positive
LPYPRGYTL (listed as Human cytomegalovirus) [SEQ ID NO: 99] | 68.8% and 62.5% | 11/16 and 10/16 | 16.7% and 33.3% | CD8 | positive | Response in mismatch ELISpots ([1]; B*08-/B*51− PBMC samples): showed responses; ELISpot response rate (12 d stim.) ([1]; Tested HLA B*08:01): 68.8; ELISpot response rate (12 d stim.) ([1]; Tested HLA B*51:01): 62.5; Binding to more than one HLA-I allotype [1]: potentially able to bind to more than one HLA-I allotype; ELISpot response rate (ex vivo) ([2]; Tested HLA B*08:01): 16.7; ELISpot response rate (ex vivo) ([2]; Tested HLA B*51:01): 33.3; Intracellular staining ([3]; Tested HLA B*08:01): CD8; Intracellular staining ([3]; Tested HLA B*51:01): CD8; HLA restriction demonstrated by tetramer stainings [4]: B*08 and B*51 restriction; Tetramer staining ([4]; Tested HLA B*08:01): positive; Tetramer staining ([4]; Tested HLA B*51:01): positive
NLVPMVATV (listed as Human cytomegalovirus) [SEQ ID NO: 101] |  |  |  |  |  | ELISpot response rate (12 d stim.) ([1]; Tested HLA A*02:01): 75.0; ELISpot response rate (ex vivo) ([2]; Tested HLA A*02:01): 100.0; Intracellular staining ([3]; Tested HLA A*02:01): CD8; Tetramer staining ([4]; Tested HLA A*02:01): positive
NTDFRVLELY (listed as Human cytomegalovirus) [SEQ ID NO: 55] | 56.3% | 9/16 | 0.0% | CD8 | Positive | ELISpot response rate (12 d stim.) ([1]; Tested HLA A*01:01): 56.3; ELISpot response rate (ex vivo) ([2]; Tested HLA A*01:01): 0.0; Intracellular staining ([3]; Tested HLA A*01:01): CD8; Tetramer staining ([4]; Tested HLA A*01:01): positive
RSALGPFVGK (listed as Human cytomegalovirus) [SEQ ID NO: 69] | 40.0% | 6/15 |  | CD8 | Positive | 
SLDRFIVQY (listed as Human cytomegalovirus) [SEQ ID NO: 57] | 35.7% | 5/14 |  | CD4 |  | 
